Converted amounts (≈) assume the structure as drawn. “And” between values parts separate entries of the source, which are not always exact repeats. Equal values may be shown once. Read-outs that look alike come from different tables or passages of the source.
Columns and labels:
[1] = test system: vancomycin intermediate resistant Staphylococcus aureus strain, VISA 2283; conditions: cited from earlier work; for potentiation of vancomycin: VISA; for MIC Van: vancomycin alone
[2] = test system: vanA containing VRSA strain VRS2; conditions: cited from earlier work; for MIC compound (Clo, Pyr, Gos): compound alone
[3] = test system: vanA containing VRSA strain VRS1; conditions: cited from earlier work; for MIC compound (Clo, Pyr, Gos): compound alone
[4] = test system: hetero VISA isolate, hVISA 2275; conditions: cited from earlier work; for MIC compound (Clo, Pyr, Gos): compound alone; for potentiation of vancomycin: hVISA
[5] = biological target: VraR (Staphylococcus aureus, UniProt Q7A4R9); assay: biochemical; type: binding; conditions: His-tagged VraR; for Kd: NB = No Binding
VraR, sequence (Q7A4R9 whole entry): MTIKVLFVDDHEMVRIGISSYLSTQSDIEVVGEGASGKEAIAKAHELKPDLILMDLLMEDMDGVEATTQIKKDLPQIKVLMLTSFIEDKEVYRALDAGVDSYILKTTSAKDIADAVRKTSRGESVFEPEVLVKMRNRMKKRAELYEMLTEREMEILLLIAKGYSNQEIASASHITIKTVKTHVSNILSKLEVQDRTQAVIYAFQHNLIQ

[6] = test system: vraSR promoter (Pvra-lux reporter in strain 923); assay: Primary screen, relative luminescence (vraSR expression)
[7] = biological target: cytoplasmic domain of VraS (VraS-C) (Staphylococcus aureus, UniProt Q99SZ7); assay: biochemical; type: binding
cytoplasmic domain of VraS (VraS-C), sequence (Q99SZ7 70-347): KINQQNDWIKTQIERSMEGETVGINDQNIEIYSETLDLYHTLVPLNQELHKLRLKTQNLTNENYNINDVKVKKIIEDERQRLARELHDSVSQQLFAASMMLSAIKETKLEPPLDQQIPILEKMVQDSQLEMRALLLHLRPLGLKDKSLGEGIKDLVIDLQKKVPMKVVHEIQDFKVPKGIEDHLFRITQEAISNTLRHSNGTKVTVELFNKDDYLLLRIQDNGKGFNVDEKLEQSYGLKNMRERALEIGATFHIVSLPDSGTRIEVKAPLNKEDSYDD

[8] = biological target: PurC (unrelated protein, control) (Bacillus anthracis, UniProt Q81ZH5); type: binding; conditions: read-out: KD PurC (control)
PurC (unrelated protein, control), sequence (Q81ZH5 whole entry, looked up): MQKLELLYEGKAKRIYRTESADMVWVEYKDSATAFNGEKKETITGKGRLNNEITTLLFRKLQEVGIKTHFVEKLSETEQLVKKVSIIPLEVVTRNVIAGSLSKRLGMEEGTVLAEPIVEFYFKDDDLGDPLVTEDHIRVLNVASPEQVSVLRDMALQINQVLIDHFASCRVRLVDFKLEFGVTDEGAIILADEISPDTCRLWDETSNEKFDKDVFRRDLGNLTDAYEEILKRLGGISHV

[9] = test system: test strain 923 pPvra-lux (USA300 MRSA); assay: Primary screen, relative growth in presence of oxacillin; conditions: compound 10 μM with oxacillin 2 μg/mL, absorbance 24 h, <0.50 = dead cells = hit
[10] = test system: vraSR promoter (Pvra-lux reporter in strain 923); type: cell-based, Staphylococcus aureus
Protocol: In the secondary screen each microtiter plate contained either cells in TSB alone (16 replicates), cells with oxacillin (2 μg/mL, 31 replicates), or cells with test compound and oxacillin (2 μg/mL, 49 wells). Each compound was assayed in four separate biological replicates. […]

[11] = test system: multiple strains of MRSA; assay: MICs (minimal inhibitory concentrations) vs multiple strains of MRSA; type: cell-based, Staphylococcus aureus; conditions: for Ox MIC in presence of compound: compound at 0.25 mg/L; for Ox MIC alone: no compound
[12] = test system: test strain 923 pPvra-lux; assay: Secondary screen / synergy confirmation of Top 40, relative growth with oxacillin; type: cell-based, Staphylococcus aureus; conditions: Top 40 library, compound at maximum non-GI conc
Protocol: In the secondary screen each microtiter plate contained either cells in TSB alone (16 replicates), cells with oxacillin (2 μg/mL, 31 replicates), or cells with test compound and oxacillin (2 μg/mL, 49 wells). Each compound was assayed in four separate biological replicates.
Synergy Confirmation of “Top 40”. […]

[13] = test system: test strain (923 pPvra-lux); assay: Growth inhibition by compound alone (maximum non-growth-inhibitory concentration); type: cell-based, Staphylococcus aureus; conditions: compound alone; maximum concentration where it did NOT inhibit growth
[14] = test system: 923 containing pPvra-lux; assay: Oxacillin MIC of test strain in 96-well format; type: cell-based, Staphylococcus aureus
[15] = test system: strain 923; conditions: strain 923, CLSI guidelines; cited from earlier work
[16] = test system: vraSR expression (Pvra-lux reporter in strain 923); assay: Validation of test strain: oxacillin induction of luminescence; type: cell-based, Staphylococcus aureus; conditions: luminescence of 923 Pvra-lux, 2 hours
[17] = test system: strain 923; assay: Oxacillin MIC of strain 923; type: cell-based; conditions: Staphylococcus aureus; strain 923, cultured in the 96-well format
[18] = new run with His-tagged VraS, NB = No Binding, read-out: KD VraS
[19] = isolate 1176, SCCmec II, ST 231
[20] = isolate 8004-01, SCCmec III, ST 239
[21] = isolate 8010-01, SCCmec IV, ST 8
[22] = isolate 8227-01, SCCmec IV, ST 87
[23] = isolate 11095, SCCmec II, ST 105
[24] = isolate Q2461, SCCmec VT, ST 59

CCN(CC)CCOc1ccc(C(=C(Cl)c2ccccc2)c2ccccc2)cc1 [Clo, Clomiphene]
MIC (in combination) Clo+, Pyr+, Gos+ ([1]; MIC of the compound in combination with the indicated Van concentration, VISA 2283): 3 µg/mL
FICi V + compound ([1]; VISA 2283): 0.75
Synergy category ([1]; VISA 2283): partial (partially potentiated vancomycin (FIC i>0.5 and <1.0))
potentiation of vancomycin [1]: partially potentiated
MIC compound (Clo, Pyr, Gos) ([1]; compound alone, VISA 2283): 12 µg/mL (≈ 29.6 µM)
Van FIC ([1]; in combination with compound, VISA 2283): 0.5
Clo FIC, Pyr FIC, Gos FIC ([1]; in combination with vancomycin, VISA 2283): 0.25
MIC (in combination) Van+ ([1]; vancomycin MIC when used in combination with compound, VISA 2283): 4 µg/mL
potentiation of vancomycin [2]: fully potentiated
MIC compound (Clo, Pyr, Gos) [2]: 12 µg/mL (≈ 29.6 µM)
FICi V + compound [3]: 0.75
Synergy category [3]: partial (partially potentiated vancomycin (FIC i>0.5 and <1.0))
potentiation of vancomycin [3]: partially potentiated
MIC compound (Clo, Pyr, Gos) [3]: 12 µg/mL (≈ 29.6 µM)
MIC compound (Clo, Pyr, Gos) ([4]; hVISA 2275): 12 µg/mL (≈ 29.6 µM)
Synergy category ([4]; hVISA 2275): partial (partially potentiated vancomycin (FIC i>0.5 and <1.0))
potentiation of vancomycin [4]: partially potentiated

O=C(Nc1nnc(-c2ccccc2Cl)o1)c1cccc(C(F)(F)F)c1 [F1374-0037]
Kd [5]: > 100 µM
RL avg (relative luminescence) [6]: 0.35
binding to VraS-C ([7]; SPR): bound
RUmax VraS ([7]; new run with His-tagged VraS): 45.1 ± 3.2
Kd [7, 18]: 25.8 ± 4.8 µM
Kd [8]: > 100 µM
RG avg (relative growth) [9]: 0.02

CSc1cccc(-c2nnc(NC(=O)c3nc4ccccc4s3)o2)c1 [F2645-0188]
Kd [5]: > 100 µM
RL Ox avg ([10]; Top 40 library, with oxacillin, compound at maximum non-GI conc): 0.05
vraSR repressing synergist ([10]; overall class from syn and rep): 1. confirmed
RL avg (relative luminescence) ([6]; primary screen, compound 10 μM with oxacillin 2 μg/mL, <0.50 = vraSR repressed = hit): 0.37
Kd ([7]; His-tagged VraS-C, SPR, read-out: KD): 56.1 ± 16.3 µM
binding to VraS-C ([7]; SPR): Binds
RUmax VraS ([7]; new run with His-tagged VraS): (74.1 ± 10.7)
RUmax VraS ([7]; previous run with untagged VraS): 325 ± 33
Kd ([7]; untagged VraS-C protein, SPR, read-out: KD): 13.2 ± 3.2 µM
Ox MIC in presence of compound ([11]; isolate 923, SCCmec IV, ST 8): 2 µg/mL
Ox MIC in presence of compound [11, 19]: <0.5 µg/mL
Ox MIC in presence of compound ([11]; isolate 2169, SCCmec IV, ST 72): 0.5 µg/mL
Ox MIC in presence of compound [11, 20]: 64 µg/mL
Ox MIC in presence of compound [11, 21]: 0.5 µg/mL
Ox MIC in presence of compound [11, 22]: 0.5 µg/mL
Ox MIC in presence of compound [11, 23]: 32 µg/mL
Ox MIC in presence of compound ([11]; isolate 13113, SCCmec II, ST 5): <0.13 µg/mL
Ox MIC in presence of compound ([11]; isolate 13354, SCCmec IV, ST 5): <0.13 µg/mL
Ox MIC in presence of compound ([11]; isolate 14315, SCCmec IV, ST 1): <0.5 µg/mL
Ox MIC in presence of compound [11, 24]: 0.25 µg/mL
RG Ox avg [12]: 0.03
Kd [8]: > 100 µM
maximum non-GI conc [13]: 40 µg/mL
RG avg (relative growth) [9]: 0.03

CN[C@H](CC(C)C)C(=O)N[C@H]1C(=O)N[C@@H](CC(N)=O)C(=O)N[C@H]2C(=O)N[C@H]3C(=O)N[C@H](C(=O)N[C@H](C(=O)O)c4cc(O)cc(O)c4-c4cc3ccc4O)[C@H](O)c3ccc(c(Cl)c3)Oc3cc2cc(c3O[C@@H]2O[C@H](CO)[C@@H](O)[C@H](O)[C@H]2O[C@H]2C[C@](C)(N)[C@H](O)[C@H](C)O2)Oc2ccc(cc2Cl)[C@H]1O [Van, Vancomycin]
MIC Van ([1]; VISA 2283): 8 µg/mL (≈ 5.52 µM)
MIC Van ([1]; VISA 2283, listed as vancomycin): 16 µg/mL and 8 µg/mL
MIC Van ([2]; vancomycin alone): 16 µg/mL (≈ 11 µM)
MIC Van ([3]; vancomycin alone): 1024 µg/mL (≈ 707 µM)
MIC Van ([4]; vancomycin alone, hVISA 2275): 4 µg/mL (≈ 2.76 µM)

Cc1onc(-c2ccccc2)c1C(=O)N[C@@H]1C(=O)N2[C@@H]1SC(C)(C)[C@@H]2C(=O)O [oxacillin, reference compound]
MIC of oxacillin [14]: 5 µg/mL
Ox MIC alone ([11]; isolate 923, SCCmec IV, ST 8): 16 µg/mL
Ox MIC alone [11, 19]: 32 µg/mL
Ox MIC alone ([11]; isolate 2169, SCCmec IV, ST 72): 16 µg/mL
Ox MIC alone [11, 20]: 256 µg/mL
Ox MIC alone [11, 21]: 16 µg/mL
Ox MIC alone [11, 22]: 2 µg/mL
Ox MIC alone [11, 23]: 256 µg/mL
Ox MIC alone ([11]; isolate 13113, SCCmec II, ST 5): 16 µg/mL
Ox MIC alone ([11]; isolate 13354, SCCmec IV, ST 5): 8 µg/mL
Ox MIC alone ([11]; isolate 14315, SCCmec IV, ST 1): 32 µg/mL
Ox MIC alone [11, 24]: 8 µg/mL
24-h oxacillin MIC [15]: 16 to 32 µg/mL
minimum concentration sufficient for maximal vraSR expression [16]: 2 µg/mL
MIC [17]: 8 µg/mL

Cc1cc(/C=C/c2ccc3cc(N(C)C)ccc3[n+]2C)c(C)n1-c1ccccc1 [Pyr, Pyrvinium]
Kd [5]: > 100 µM
Synergy category ([1]; VISA 2283): non syn
potentiation of vancomycin [1]: not
binding to VraS-C ([7]; SPR): binds
RUmax VraS ([7]; new run with His-tagged VraS): 46.5 ± 2.9
Kd [7, 18]: 21.3 ± 3.6 µM
Kd [8]: > 100 µM
Synergy category [2]: synergistic (An FICi of ≦0.5 defines a synergistic interaction)
potentiation of vancomycin [2]: fully potentiated
MIC compound (Clo, Pyr, Gos) [2]: 1.12 µg/mL
fold decrease Van MIC [3]: 64 fold
potentiation of vancomycin [3]: fully potentiated
MIC compound (Clo, Pyr, Gos) [3]: 2.24 µg/mL
MIC (in combination) Clo+, Pyr+, Gos+ ([4]; MIC of the compound in combination with the indicated Van concentration, hVISA 2275): 0.56 µg/mL
MIC compound (Clo, Pyr, Gos) ([4]; hVISA 2275): 16 µg/mL
FICi V + compound ([4]; hVISA 2275): 0.54
Synergy category ([4]; hVISA 2275): partial (partially potentiated vancomycin (FIC i>0.5 and <1.0))
fold decrease Van MIC ([4]; hVISA 2275): 2 fold
potentiation of vancomycin [4]: partially potentiated
Van FIC ([4]; in combination with compound, hVISA 2275): 0.50
Clo FIC, Pyr FIC, Gos FIC ([4]; in combination with vancomycin, hVISA 2275): 0.04
MIC (in combination) Van+ ([4]; vancomycin MIC when used in combination with compound, hVISA 2275): 2 µg/mL

O=C(Nc1nnc(-c2ccc(Br)cc2)o1)c1ccc(Cl)s1 [F2518-0474]
RUmax VraR [5]: 27.5 ± 2.4
Kd [5]: 22.2 ± 5.4 µM
RL avg (relative luminescence) [6]: −0.01
binding to VraS-C ([7]; SPR): bound
RUmax VraS ([7]; new run with His-tagged VraS): 52.9 ± 12.8
Kd [7, 18]: 79.5 ± 34.6 µM
Kd [8]: > 100 µM
RG avg (relative growth) [9]: 0.01

O=C(Nc1nnc(-c2ccc3c(c2)CCCC3)o1)c1nc2ccccc2s1 [F0608-0570]
Kd [5]: > 100 µM
Kd [7, 18]: > 100 µM
Kd [8]: > 100 µM

From patent US9675592B2, “Methods and compositions for bacteria infections” (priority 2013, dated 2017)
